Among the test systems are SR leukemia; TK-10 renal; MALME-3M melanoma; HOP-62 NSCLC; HT29 colon; MOLT-4 leukemia; HOP-18 NSCLC; HOP-92 NSCLC; DMS 114 small cell lung; T-47D breast.
Assay in all cases: NCI-60 cell line screen, 48 h

Structures are written as SMILES. Where “and” joins values, the source holds several entries; their conditions need not be identical. Identical values can stand only once.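 Exposure lasted 48 hours, with cells grown in 96-well plates and compounds tested at five concentrations. GI50 marks 50% less growth. At the TGI there is no net growth.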 Calls of active or inactive are those of the source. Cut-off read from the data, not from the text of the source: active = GI50 below about 0.43 µM; inactive = the rest.

Take `O=C1C(Br)=CC2(C=C1Br)CCNc1c(O)c3c4c(c12)=NCCC=4C=N3`: the TGI came to 117 nM in the assay on SR leukemia; 792 nM in the assay with TK-10 renal; 94.6 nM in the assay with MALME-3M melanoma; 5340 nM in the assay with HOP-62 NSCLC; 168 nM in the assay on HT29 colon; 110 nM in the assay on MOLT-4 leukemia. For the same compound, the TGI in the assay with HOP-18 NSCLC turned out to be 3400 nM; with HOP-92 NSCLC, 185 nM; with DMS 114 small cell lung it was 101 nM; in the assay with T-47D breast, 165 nM.

Turning to `CCc1ccc([O-])c(C=NCCCN(C)CCCN=Cc2cc(C)ccc2[O-])c1.[Co+3].[N-]=[N+]=[N-]`, the GI50 in the assay on SR leukemia was 36.4 µg/mL; in the assay on TK-10 renal it was 29 µg/mL; in the assay with MALME-3M melanoma, 50 µg/mL and 82.6 µg/mL; with HOP-62 NSCLC, 10.5 µg/mL and 12 µg/mL; in the assay on HT29 colon, 50 µg/mL and > 150 µg/mL; in the assay with MOLT-4 leukemia it was > 150 µg/mL. Further, the GI50 in the assay on HOP-92 NSCLC is 15.9 µg/mL and 22 µg/mL; with DMS 114 small cell lung, 136 µg/mL; in the assay with T-47D breast it was 40 µg/mL. Also, the TGI in the assay on SR leukemia was 50 µg/mL; in the assay with TK-10 renal, 50 µg/mL; in the assay with MALME-3M melanoma, 50 µg/mL and > 150 µg/mL; with HOP-62 NSCLC it was 50 µg/mL and 34.5 µg/mL; in the assay on HT29 colon, 50 µg/mL and > 150 µg/mL; with MOLT-4 leukemia it was > 150 µg/mL. Besides, the TGI with HOP-92 NSCLC was 50 µg/mL and 54.7 µg/mL; in the assay on DMS 114 small cell lung, > 150 µg/mL; in the assay with T-47D breast, 50 µg/mL. Besides, the result in the assay on HOP-18 NSCLC was inactive.

The values above are taken from PubChem BioAssay (NCI).
